The assay is described as follows: GFP-wavelength compound autofluorescence in cells – imaging, high-content imaging, artefact control, dose response (AID 2124).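 As to all read-outs here: cells exposed to compound for 48 hours before fixing.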 The note with it: cells, GFP-channel autofluorescence, high-content imaging, at 10 µM; for z-score: stronger effect = higher value.

The text below walks through data of PubChem BioAssay AID2124 (Sanford-Burnham Center for Chemical Genomics, 2009).

Results filed as inconclusive are left out. The source made the active and inactive calls. No rule for the calls is given here; tested in MIN6 cells.

As to `N#C/C(=C/c1ccc(N2CCCCC2)o1)C(=O)NCCc1c[nH]c2ccccc12`, the z-score is 0.47 and the cell count came out at 3410 cells.
Taken in the same sequence, the figures for `O=C(OCC(=O)N1CCN(C(=O)c2ccco2)CC1)c1ccccc1OCc1ccccc1` were -0.38 (inactive) and 2850 cells.
Taken in the same sequence, the figures for `COC(=O)c1sc2ccccc2c1-n1cccc1C(=O)C(=O)Nc1ccc(F)cc1` were -0.38 (inactive) and 3000 cells.
`COc1ccc(C2=NC(=O)/C(=C\c3cc(OC)c(OC)c(OC)c3)O2)cc1`: the z-score was -0.38 (inactive) and the cell count came to 2830 cells.
Taken in the same sequence, the figures for `O=C(NC1=NCCS1)C1Cc2ccccc2CN1C(=O)c1ccccc1` (stereo not given) were -0.34 (inactive) and 2680 cells.
For `CCN(CC)c1ccc(/C=C2/SC(=O)N(C(C)C)C2=O)o1`, the z-score is 0.73 and the cell count was 596 cells.
Taken in the same sequence, the figures for `Cc1ccc([N+](=O)[O-])cc1NC(=O)c1cccs1` were -0.33 (inactive) and 3030 cells.
As for `Fc1ccc(C2CC(c3ccco3)=NN2c2ccccc2)cc1` (stereo not given), the z-score was -0.33 (inactive) and the cell count was determined as 2910 cells.
On to `CCC(=O)Nc1ccc2c(c1)ncn2-c1ccccc1`, for which the z-score was -0.34 (inactive) and the cell count was determined as 3260 cells.
Take `CCN(CC)c1ccc(/C=C2\SC(=O)N(C(C)C)C2=O)o1`: the z-score is 0.48 and the cell count is 941 cells.
For the compound `Cc1nn(-c2ccccc2)c(C)c1NC(=O)CCl`, the z-score was -0.33 (inactive) and the cell count was found to be 1910 cells.
With `CN(C)C=Nc1ccc2nn(-c3ccccc3)nc2c1`, the z-score was -0.34 (inactive) and the cell count came out at 3050 cells.
As for `NCC12CC3CC(C1)CC(CN)(C3)C2`, the z-score is -0.36 (inactive) and the cell count is 3300 cells.
For `CCc1cc(C(=O)OC)c(NC(=O)CC2Sc3ccc(C(F)(F)F)cc3NC2=O)s1` (stereo not given), the z-score is -0.39 (inactive) and the cell count turned out to be 2390 cells.
For `CCn1c(Cn2nnc(-c3ccccc3)n2)nnc1SCC(=O)Nc1ccc(C(C)=O)cc1` the same measures were -0.33 (inactive) and 3180 cells.
On to `CCCCNC(=O)/C(C#N)=c1\s/c(=C\c2ccccc2OC(F)F)c(=O)n1CCCOC`, for which the z-score is -0.37 (inactive) and the cell count is 3260 cells.
For `COc1cc2nc(/C=C/c3ccc(N(C)C)cc3)sc2cc1SC` the same measures were 0.29 and 2900 cells.
Taken in the same sequence, the figures for `COc1cc(N2CCCC2)c(OC)cc1/C=C(/C#N)c1cccc(Br)c1` were 0.19 and 3340 cells.
For `CCC(C)(C(=O)NC1CCCC1)N(C(=O)CNC(C)=O)c1ccccc1` (stereo not given) the same measures were -0.39 (inactive) and 2960 cells.
Turning to `CCCCCn1nc(-c2ccccc2)c2nc3ccccc3nc21`, the z-score was 1.27 and the cell count is 3200 cells.
On to `O=C(CC12CC3CC(CC(C3)C1)C2)NCC(=O)N1CCc2ccccc2C1`, for which the z-score is -0.33 (inactive) and the cell count was found to be 2920 cells.
Taken in the same sequence, the figures for `CCc1c(C(=O)NC2CCCCC2)[nH]c(C)c1C(C)=O` were -0.25 (inactive) and 3040 cells.
Taken in the same sequence, the figures for `Cc1ccc(N2C(=O)c3cccc4c(N5CCN(C)CC5)ccc(c34)C2=O)c2cccnc12` were 0.07 and 1800 cells.
For `O=[N+]([O-])c1ccc(N/N=C/c2sc(N3CCOCC3)nc2-c2ccccc2)c(S(=O)(=O)Nc2ccccc2Cl)c1` the same measures were 0.01 and 144 cells.
`C/C(=N\S(=O)(=O)c1ccc(C)cc1)N1CCN(S(=O)(=O)c2ccccc2)C1`: the z-score is -0.38 (inactive) and the cell count is 3140 cells.
For `O=c1ccc(NS(=O)(=O)c2ccccc2)cn1Cc1ccc(Cl)c(Cl)c1` the same measures were -0.38 (inactive) and 3280 cells.
Taken in the same sequence, the figures for `COc1ccc(/C(O)=C/c2nc3ccc(C(=O)NCCc4cccc(C)c4)cc3[nH]c2=O)cc1OC` were 0.56 and 1180 cells.
Taken in the same sequence, the figures for `CCCN1CC=C2C(C#N)=C(N)C(C#N)(C#N)C(c3cc(OC)ccc3OC)C2C1` (stereo not given) were 0.52 and 3140 cells.
For the compound `CC1=Nc2ccccc2/C1=C/c1sc(=S)n(-c2cccc(C(=O)O)c2)c1O`, the z-score was -0.37 (inactive) and the cell count worked out at 3380 cells.
For `COCCN(CCOC)Cc1cc(=O)oc2cc3c(cc12)CCC3` the same measures were -0.38 (inactive) and 3160 cells.
For `Cc1n[nH]c(C)c1N1C(=O)c2cccc3c(N4CCCCCC4)ccc(c23)C1=O` the same measures were 0.33 and 2690 cells.
For `Nc1c(C(=O)c2cccs2)sc2nsc(SCCN3CCCCC3)c12` the same measures were 0.3 and 2930 cells.
Take `CC(C)(C)c1cc(C(=O)NCc2cccnc2)ccn1`: the z-score is -0.33 (inactive) and the cell count stood at 3450 cells.
For `Cc1ccccc1NCC(=O)N/N=C/c1c[nH]c2ccccc12` the same measures were -0.33 (inactive) and 2720 cells.
For `CCN1C=CC2=C(C#N)C(N)C(C#N)(C#N)C(c3ccccc3C(F)(F)F)C2C1` (stereo not given) the same measures were 0.77 and 2720 cells.
For `COc1ccc(OC)c(C2=NOC(C(=O)NCC3CCCO3)C2)c1` (stereo not given) the same measures were -0.39 (inactive) and 2830 cells.
`CC(C)N1CCc2c(sc(NC(=O)c3ccc(S(=O)(=O)N4CCc5ccccc54)cc3)c2C(N)=O)C1`: the z-score was 0.77 and the cell count was 1390 cells.
Taken in the same sequence, the figures for `COc1ccc2nc(SCC(=O)Nc3c(C)cccc3C)[nH]c2c1` were -0.39 (inactive) and 3480 cells.
Taken in the same sequence, the figures for `N#C/C(=C/c1ccc(-c2ccccc2)o1)c1nc(-c2cccs2)cs1` were 0.88 and 3200 cells.
For `O=C(COc1ccc(Cl)cc1)NCc1nnc(SCC(=O)NC2CCCCC2)o1` the same measures were -0.32 (inactive) and 3660 cells.
Consider `CCOc1ccc(OCCCCn2ccnc2)cc1`, for which the z-score was -0.39 (inactive) and the cell count turned out to be 2900 cells.
Regarding `CCCCN1C(=O)/C(=C/C=C2/CC(C)(C)CN2C)SC1=S`, the z-score is 0.43 and the cell count is 2800 cells.
Regarding `N#Cc1ccc(-c2ccc(Cl)cc2)nc1SCC(=O)c1cccc(Cl)c1`, the z-score is -0.27 (inactive) and the cell count came to 3130 cells.
Taken in the same sequence, the figures for `Cc1cc(C)c(C(=O)O)c(CC(C)(C)C(=O)O)c1` were -0.33 (inactive) and 3280 cells.
On to `O=C(NN=C1CCN(Cc2ccccc2)CC1)c1cccc(S(=O)(=O)Nc2ccccc2Cl)c1`, for which the z-score was -0.38 (inactive) and the cell count was determined as 3200 cells.
For `O=C(c1ccc2c(c1)OCO2)N1CCCC1` the same measures were -0.33 (inactive) and 2960 cells.
For the compound `Cn1c(=O)c(N)c2c3c(c(Br)ccc31)C(=O)c1ccccc1-2`, the z-score is 0.12 and the cell count came out at 3210 cells.
Taken in the same sequence, the figures for `CCOc1ccc(C2C(C(=O)O)c3ccccc3C(=O)N2CCN2CCOCC2)cc1` (stereo not given) were -0.39 (inactive) and 3370 cells.
Taken in the same sequence, the figures for `N/C(=N\OC(=O)C1CCCCC1)c1cccc([N+](=O)[O-])c1` were -0.33 (inactive) and 3090 cells.
For `Cc1ccc(C(=O)NCCCn2ccnc2)cc1[N+](=O)[O-]` the same measures were -0.39 (inactive) and 3010 cells.
Turning to `CC(=O)Nc1sc(/C(C#N)=C/c2ccc(Cl)c(Cl)c2)nc1-c1ccc(C)cc1`, the z-score was 1.08 and the cell count worked out at 2880 cells.
Taken in the same sequence, the figures for `COc1cc(Cl)c(C)cc1NC(=O)CN(C)Cc1cccc(OC)c1OC` were -0.26 (inactive) and 2910 cells.
For `Cc1cc(S(=O)(=O)NC2CCCCC2)c(C)s1` the same measures were -0.33 (inactive) and 3420 cells.
For `O=S(=O)([O-])CCC[n+]1c(/C=C\Nc2ccccc2)oc2ccc(-c3ccccc3)cc21` the same measures were 1.34 and 3120 cells.
With `CCN(CC)c1ccc(/C=C(/C#N)c2nc3ccc(C)cc3[nH]2)c(OC(C)C)c1`, the z-score was 2.57 and the cell count was 1480 cells.
Taken in the same sequence, the figures for `COc1ccc(C2/C=C\CN(S(=O)(=O)c3cccc4cccnc34)CC(=O)N2Cc2ccc(F)cc2)cc1` (stereo not given) were -0.39 (inactive) and 3760 cells.
Taken in the same sequence, the figures for `Cc1cc(NC(=O)/C(C#N)=C/c2ccc(-c3ccc(SC(F)F)cc3)o2)n(-c2ccccc2)n1` were 0.3 and 2190 cells.
Taken in the same sequence, the figures for `CN1/C(=C/C=C(C#N)C#N)C=Cc2ccccc21` were -0.35 (inactive) and 2500 cells.
With `Cc1ccc2[nH]c(-c3ccccc3)c(CN(C)C)c(=O)c2c1`, the z-score is -0.33 (inactive) and the cell count was 3240 cells.
Taken in the same sequence, the figures for `O=C(Nc1ccon1)c1cccc(S(=O)(=O)N2CCCCC2)c1` were -0.39 (inactive) and 3190 cells.
Consider `CN(C)c1ccc(/C=C2\SC(=O)N(CCc3nnc(N)s3)C2=O)cc1`, for which the z-score is -0.3 (inactive) and the cell count was found to be 3290 cells.
For the compound `CC(C)(C)C(=O)/C=c1\s/c(=C\c2ccc(-c3ccc([N+](=O)[O-])cc3)o2)c(=O)n1CC(=O)NC(N)=O`, the z-score is 4.23 and the cell count amounted to 3110 cells.
Taken in the same sequence, the figures for `O=C(NCCc1csc(-c2ccccc2)n1)c1ccccc1F` were -0.25 (inactive) and 3010 cells.
For `CCOC(=O)CC1C(=O)NCCN1S(=O)(=O)c1ccc(Cl)cc1Cl` (stereo not given) the same measures were -0.33 (inactive) and 3500 cells.
Taken in the same sequence, the figures for `Cc1ccc(SCc2cc(-c3ccc(Cl)cc3)no2)cc1` were -0.38 (inactive) and 2860 cells.
